Results published in paper PMC6226472, “Cardol triene inhibits dengue infectivity by targeting kl loops and preventing envelope fusion” (Scientific Reports, 2018).

Key:
DENV2 NGC = assay: Efficacy study (EC50) in DENV2 infected Vero cells, plaque titration; type: cell-based, Dengue virus
Protocol: Next, we studied the efficacies (EC50) of the phenolic lipid homologues against DENV2 infectivity in Vero cells. Briefly, compounds at 10 different concentrations were added to DENV2-infected Vero cells (M.O.I. of 0.1) during and post infection and the viral inhibition was determined by plaque titration. […] Noted that anacardic acids were major components of CNSL extracts and all homologues were purified directly from CNSL itself.
Next, each homologue was analyzed for effective concentration (EC50). Vero (5 × 10^4) cells were seeded, and infected with DENV2 (M.O.I. of 0.1) as previously described. Phenolic lipid mixtures and homologues were serially diluted in DMSO to the final concentrations as follows; 0, 0.5, 1, 1.5, 2, 2.5, 5, 7.5, 10, 25, and 50 µM. DMSO at the concentration of 1% was used as a mock treatment referring to 100% infection. Infected cells were treated with the designated compounds during and post infection. Supernatants were collected at 3 days after infection for analysis of virion production by plaque titration. Non-linear regression analysis was used to determine the effective concentrations. […] The therapeutic index (TI) was a ration of CC50/EC50 of the compound.

DENV1 (16007) = assay: Efficacy (EC50) in infected Vero cells; type: cell-based; conditions: Dengue virus
DENV4 (c0036) = assay: Efficacy (EC50) in infected Vero cells; type: cell-based; conditions: Dengue virus
ZIKV (sv0010/15) = assay: Efficacy (EC50) in infected Vero cells; type: cell-based, Zika virus
[1] = test system: dengue virus serotype 1–4; assay: Pan-dengue inhibition (EC50s over serotypes); type: cell-based; conditions: DENV1, read-out: EC50s, pan-dengue inhibition
DENV2 [2] = assay: Time of drug addition study (TOA); type: cell-based, Dengue virus; conditions: 10 and 20 µM, added 0-48 h after infection, 72 h incubation
Protocol: Time of drug addition assay is a standard method to primarily identify the possible target of a newly characterized compound[20]. Based on the previous efficacy results, cardol triene was chosen as a representative of all CNSL-derived phenolic lipids. Cardol triene was prepared in DMSO and added to the final concentrations of 10 µM and 20 µM to DENV2 infected Vero cells (M.O.I. of 0.1). The compound was added to the cells at different time-points. DMSO alone was added to the infected cells as a mock treatment. After 72 h incubation, cell lysates and supernatants were collected for analysis of intracellular RNAs and infectious virions by RT-qPCR and plaque titration, respectively.
Vero (5 × 10^4) cells were seeded into each well of 24-well plates. cells were infected with DENV2 (M.O.I. of 0.1) after an overnight incubation[44],[45]. Cardol triene (C15:3) at 10 and 20 µM were added to the cells during (0 h) and after infections at early time-points as follows; 1, 2, 4, 6, 8, 10, 12, 24, 36, and 48 h. Moreover, late time-points after were also accessed at 12, 14, 16, 18, 20, 22, 24, 36, 48, 60, and 72 h after infections. DMSO alone was added to the infected cells at respective time-points as a mock treatment referring to 100% infectivities. […] Data were calculated, assembled, and reported as percent intracellular RNAs and infectious virions under the drug treatment at designated time-points.

DENV2 [3] = assay: Fusion inhibition study in C6/36 cells; type: cell-based, Dengue virus; conditions: 10 µM, C6/36, M.O.I. of 1, 48 h, MES
Protocol: (§1) Fusion inhibition study[25]–[27] of DENV and ZIKV were used to confirm the findings. Briefly, cardol triene at 10 µM was added to DENV2 or ZIKV (Fig. 6C-D) infected C6/36 cells at the M.O.I. of 1 for 48 h before inducing acidic condition by MES. The 4G2 antibody was used as a positive control inhibiting both DENV2 and ZIKV fusion. […] Therefore, we concluded that one of the targets of cardol triene, and other CNSL-derived phenolic lipids, was the kl loops of DENV E protein, thus preventing the conformational change of DENV dimer to trimer that was required to initiate pH-dependent fusion.
(§2) C6/36 (2 × 10^5) cells were seeded into 24-well plates before infection with DENV2 and ZIKV (M.O.I. of 1) as described. Cardol triene at 10 µM were introduced to the DENV2 and ZIKV infected cells during and after infection. […] Cells were incubate at 28 °C for 2 days before addition of 0.5 M 2-(N-morpholino) ethanesulfonic acid (MES) (pH 5.0) (Sigma Aldrich, St Louis, USA). Moreover, cells from selected wells subsequently underwent DAPI staining. Cell-cell fusion was observed under brightfield and fluorescence using an Eclipse TS100 Inverted Routine Microscope (Nikon, New York, USA).

ZIKV = assay: Fusion inhibition study in C6/36 cells; type: cell-based, Zika virus; conditions: 10 µM, C6/36, M.O.I. of 1, 48 h, MES
Protocol: as §1, §2

[4] = test system: BHK-21/DENV2 replicon cells; assay: Replicon inhibition study, RT-qPCR of DENV2 NS1; type: cell-based, Dengue virus; conditions: 72 h
Protocol: We analyzed the replication inhibition using BHK-21/DENV2 replicon cells stably expressed the non-structural proteins. Cardol triene at 10 µM and 20 µM were added to the replicon cells for 72 h and the replication inhibition was accessed by RT-qPCR of DENV2 NS1. Ribavirin, a known inhibitor of flaviviral replication, was used as a positive inhibition control. […] Replicon cell viability under cardol triene treatment was also analyzed using an MTS assay. […] Therefore, we concluded that cardol triene inhibited DENV RNA replicon replication, potentially in dose-dependent manner.
BHK-21 (5 × 10^4) cells expressing DENV-2 replicon (BHK-21/DENV2)[44] were seeded as previously described. Cardol triene at 10 µM and 20 µM, DMSO, and ribavirin (TargetMol, USA) were added to the replicon cells and incubated at 37 °C for 3 days. Cells lysates were collected and viral RNA was quantified by RT-qPCR as previously described. Data were reported as percent inhibition compared with ribavirin. Three biological replicates were performed and results were means and SEM of all replicates.

[5] = test system: normal human lung fibroblast cell line, GM07492A; design: method as in PMID 27934289; conditions: read-out: cytotoxicity value (CC50); cited from earlier work

In the case of C=CC/C=C/C/C=C/CCCCCCCc1cc(O)cc(O)c1 [Cardol triene, 5-[8(Z), 11(Z), 14-pentadecatrienyl]resorcinol], the EC50 (DENV2 NGC; Dengue virus, 72 h, DENV2 NGC (M.O.I. of 0.1) infected Vero cells, plaque titration, 3 days, read-out: EC50) is reported as 7.13 ± 0.72 µM, the “TI (therapeutic index, CC50/EC50)” value (DENV2 NGC; Vero CC50 / DENV2 EC50) is reported as 29.07 and the EC50 (DENV1 (16007)) is reported as 5.35 ± 1.16 µM. For the same compound, the EC50 (DENV4 (c0036)) was 8.21 ± 0.34 µM, the Zika virus inhibition (ZIKV (sv0010/15)) was “did not inhibit” and the EC50 [1] was 5.35 to 8.89 µM. The “intracellular RNAs and infectious virions by time of drug addition” value (DENV2 [2]) was “decreased immediately at 1 h and persisted until 48 h after infections”, the “DENV2 pH-dependent cell fusion” value (DENV2 [3]) was “exclusively inhibited dengue fusion” and the “ZIKV pH-dependent cell fusion” value (ZIKV) was “ZIKV-induced fused cells and nuclei were present”. For the same compound, the “DENV2 RNA inhibition” value ([4]; 10 µM) was 76.60 ± 7.59%, the “DENV2 RNA inhibition” value ([4]; 20 µM) was 89.44 ± 4.02% and the CC50 [5] was 193 ± 6 µM.
